“Also recorded” adds a separate entry of the source. Read-outs that look alike come from different tables or passages of the source.
Tests used:
[1] = system: antibodies from dogs infected with E. chaffeensis; format: binding; details: ELISA, dog sera
[2] = system: antibodies from dogs infected with E. canis; format: binding; details: ELISA, dog sera
[3] = system: Ehrlichia antibody from dogs infected with E. ewingii; format: binding; details: ELISA; dog sera
[4] = system: Ehrlichia antibody in human serum; format: binding; details: ELISA; humans infected with E. chaffeensis
Experimental: ELISA plates (Nunc, Maxisorp) were coated with P28-1 and incubated with sera of humans (infected with E. chaffeensis) (1:100) (1 hour-RT) followed by incubation with goat anti-human AP (1:1500).

[5] = system: antibodies from mice infected with Rickettsia; format: binding; details: ELISA; R. conorii, R. australis, R. akari
[6] = system: antibodies from mice infected with Orientia; format: binding; details: ELISA; O. tsutsugamushi
E. muris = assay: Immunization and Ehrlichia muris challenge, ehrlichial load by quantitative real-time PCR; format: in vivo, C57BL/6 mice; details: for protection against E. muris challenge as determined by bacterial load (quantitative real time-PCR): immunized mice; for bacterial load in vaccinated mice compared to unvaccinated controls: spleen and liver, days 7 and 14 after bacterial infection; for protection against Ehrlichia infection (overall statement): vaccinated mice challenged with E. muris
Experimental: Since the P28-1955-75 and Ehrlichia Hsp6043-63 epitope peptides induced antibodies, the inventors reasoned that they also could provide protection against Ehrlichia thereby functioning as potential vaccine candidates. […] The spleen and liver were collected at different days after bacterial challenge and the bacterial copy number determined by quantitative real time PCR.
(§1) Mice were immunized i.p., with two doses of 50 micrograms (0.02 μM) of each P28-1955-75 peptide or Ehrlichia Hsp6043-63 peptides conjugated to KLH 15 days apart (the first immunization with complete Freund's adjuvant and the second immunization with incomplete Freund's adjuvant) (3 mice per group). Thirty days after the first immunization mice were challenged intraperitoneally (i.p.) with a high dose of E. muris (˜1×10^4 bacterial genomes) and observed daily. Controls included unchallenged naive mice as well as unvaccinated mice injected with E. muris alone. Mice were sacrificed on days 7, 14 and 21 after Ehrlichia challenge, and spleen and liver were harvested and sera collected. The ehrlichial load in spleen and liver was determined by quantitative RT-PCR. Sera were assayed for determination of antibody titers.
The bacterial burdens in the organs were determined by quantitative real-time PCR. The Ehrlichia-specific dsb gene, which encodes a disulfide bond-forming protein (GenBank accession #AY236484 and AY236485), was selected as the target gene for amplification of E. muris. The sequences of the primers and probes and thermal cycle conditions were described previously (Stevenson et al. (2006) Infect Immun 74:4856-4864). PCR analyses were considered negative for ehrlichial DNA if the critical threshold values (Ct) exceeded 40 cycles. Expression of the ehrlichial load was normalized relative to the total DNA. Each sample was run in duplicate.

[7] = system: Ehrlichia-specific IgG antibody; assay: Antibody response by ELISA in vaccinated mice after E. muris challenge; format: in vivo, C57BL/6 mice; details: for antibody levels in vaccinated mice, day 14 compared to day 7: after E. muris challenge; for IgG antibody response after E. muris challenge, vaccinated compared to unvaccinated E. muris-infected mice: blood on days 7 and 14
Experimental: ELISA plates (Nunc, Maxisorp) were coated with P28-1 and incubated with sera of mice (1:100) vaccinated with Ehrlichia Hsp60 and challenged with E. muris. Following incubation with mice sera they were incubated with goat anti-mouse AP (1:500).
Immunization with vaccines stimulates the immune system to produce a robust antibody response that can provide protection against pathogens. To determine the antibody responses against the Ehrlichia Hsp6043-63 peptide vaccine, blood was collected from vaccinated mice on days 7 and 14 and performed ELISA. […] However, there was no difference between the antibody levels in vaccinated mice between days 7 and 14. The Ehrlichia Hsp6043-63-specific antibody levels in infected unvaccinated mice were highest on day 14 compared to day 7 (FIG. 6A). To determine the antibody responses against the P28-1955-75 peptide vaccine, we collected blood from immunized mice on days 7 and 14 and subjected the samples to ELISA.
as §1

[8] = system: antibody isotypes IgG1, IgG2c, IgG2b, IgG3, IgM; assay: Measurement of antibody subclasses (isotypes) by ELISA in vaccinated mice after challenge; format: in vivo, C57BL/6 mice; details: day 14 post challenge
Experimental: as §1
ELISA was performed to measure the concentration of E. muris specific IgG subclass antibodies as described previously [Ismail et al. (2004) J Immunol 172:1786-1800; McBride et al. (2003) Infect Immun 71: 2516-2524). Briefly, the ELISA plates were coated with 50 μl of peptide (Ehrlichia Hsp6043-63) or recombinant P28-19 protein at a concentration of 4 μg/ml in PBS. Serum samples were diluted 1:100, and 100 μl of each sample was added to peptide-coated wells and incubated at 25° C. for 1 h. […] When peptides conjugated to KLH were used as a probe in ELISA, KLH was used as control and the results subtracted from positive values.

[9] = system: IFN-γ-producing CD4+ T cells in the spleen; assay: Flow cytometry of peptide-specific IFN-γ-producing memory CD4+ T cells in splenocytes of E. muris-infected mice; format: cell-based; details: day 45 after infection; splenocytes stimulated in vitro with the peptide for 18 h
Experimental: Flow cytometry was used to determine if Ehrlichia Hsp6043-63 and P28-19 specific memory T cells are induced during E. muris infection.
The frequencies of antigen specific IFN-γ-producing T cells in the spleens were determined by flow cytometric analysis. […]
After blocking Fc receptors with anti-Fc receptor mAbs (BD PharMingen, San Diego, Calif.) in FACS buffer (Dulbecco's PBS without Mg^2+ or Ca^2+ containing 1% fetal calf serum and 0.09% sodium azide) at 4° C. for 15 minutes, cells were labeled with fluorochrome-conjugated mAbs (BD Biosciences Pharmingen, San Diego, Calif.) specific for mouse CD3 (APC; clone 17A2), and CD4 (FITC; clone RM4-5), and CD8 (PerCP-Cy 5.5; clone 53-6.7). […] Data were analyzed using FCS Express software (De Novo Software, Los Angeles, Calif.). Dot plots were gated on CD3+ T cells and the frequencies and absolute numbers of antigen-specific IFN-γ-producing CD4+ T cells in the spleens were determined after subtracting the background staining of unstimulated cells in wells containing medium only.

Substance: akeeknataktfglkq (AKEEKNATAKTFGLKQ; listed as Ehrlichia muris) [P28-1955-75 peptide, peptide of E. muris outer membrane protein P28-19, amino acids 55-75]
- reaction with / detection of antibodies from dogs infected with E. chaffeensis [1]: reacted
- reaction with / detection of antibodies from dogs infected with E. chaffeensis ([1]; listed as P28 peptide): very sensitive
- reaction with / detection of antibodies from dogs infected with E. canis [2]: reacted
- reaction with / detection of antibodies from dogs infected with E. canis ([2]; listed as P28 peptide): very sensitive
- detection of Ehrlichia antibodies of dogs infected with E. ewingii [3]: very sensitive
- detection of Ehrlichia antibody in human serum [4]: sensitive
- cross-reaction with antibodies from mice infected with Rickettsia [5]: did not react
- cross-reaction with antibodies from mice infected with Orientia [6]: did not react
- protection against E. muris challenge as determined by bacterial load (quantitative real time-PCR) (E. muris; days 7 and 14 after E. muris challenge): protected
- bacterial load in vaccinated mice compared to unvaccinated controls (E. muris): lower bacterial load
- protection against Ehrlichia infection (overall statement) (E. muris): provided protection
- antibody levels in vaccinated mice, day 14 compared to day 7 [7]: higher on day 14
- IgG antibody response after E. muris challenge, vaccinated compared to unvaccinated E. muris-infected mice [7]: higher IgG antibody levels
- antibody isotype levels in vaccinated compared to unvaccinated mice after bacterial challenge [8]: higher levels of IgG1, IgG2b, IgG2c, and IgG3
- antibody isotype levels in vaccinated compared to unvaccinated mice after bacterial challenge ([8]; listed as P28-1955-75): higher levels of IgG1, IgG2b, IgG3 and IgM
- peptide-specific IFN-γ-producing CD4+ T cells in spleen of E. muris-infected mice compared to naive uninfected mice [9]: significantly higher frequencies and absolute numbers; also recorded: higher frequency

Substance: ygapeitkdgykviksikped (YGAPEITKDGYKVIKSIKPED; listed as Ehrlichia muris) [Ehrlichia Hsp6043-63 peptide]
- reaction with / detection of antibodies from dogs infected with E. chaffeensis [1]: reacted
- reaction with / detection of antibodies from dogs infected with E. canis [2]: reacted
- cross-reaction with antibodies from mice infected with Rickettsia [5]: did not react
- cross-reaction with antibodies from mice infected with Orientia [6]: did not react
- protection against E. muris challenge as determined by bacterial load (quantitative real time-PCR) (E. muris; day 14 after E. muris challenge): protected
- bacterial load in vaccinated mice compared to unvaccinated controls (E. muris): lower bacterial load
- protection against Ehrlichia infection (overall statement) (E. muris): provided protection
- antibody levels in vaccinated mice, day 14 compared to day 7 [7]: no difference
- IgG antibody response after E. muris challenge, vaccinated compared to unvaccinated E. muris-infected mice [7]: higher IgG antibody levels
- antibody isotype levels in vaccinated compared to unvaccinated mice after bacterial challenge [8]: higher levels of IgG1, IgG2c, IgG2b, and IgG3
- antibody isotype levels in vaccinated compared to unvaccinated mice after bacterial challenge ([8]; listed as Ehrlichia Hsp6043-63): higher levels of IgG1, IgG2c, IgG2b, IgG3 and IgM
- peptide-specific IFN-γ-producing CD4+ T cells in spleen of E. muris-infected mice compared to naive uninfected mice [9]: significantly higher frequencies and absolute numbers; also recorded: higher frequency

Reference: patent publication US8492103B2 (priority 2011, dated 2013)
